How the values were obtained:
[1] = system: Ramos cells; assay: Cytotoxicity (cell death) in Ramos cells; format: cell-based
Protocol: (§1) The compounds listed in Table 9 were tested for activity against F1F0-ATPase by measuring ATP synthesis and ATP hydrolysis. In addition, the compounds were assessed for cytotoxicity in Ramos cells Inhibition of ATP synthesis and hydrolysis by the F1F0-ATPase and cytotoxicity in Ramos cells was measured as described in K. M. Johnson et al. Chemistry & Biology 2005, 12, 485-496.

[2] = target: T1, F1F0-ATPase (Bos taurus, UniProt P13621); assay: Inhibition of ATP hydrolysis by the F1F0-ATPase; format: biochemical; conditions: IC40: concentration for 40% inhibition
Protocol: as §1

[3] = target: T1, F1F0-ATPase; assay: Inhibition of ATP synthesis by the F1F0-ATPase; format: biochemical; conditions: IC40: concentration for 40% inhibition
Protocol: as §1

SMILES | EC50 ([1]; Ramos cells) | ATP Hydrolysis (IC40 μM) [2] | ATP Synthesis (IC40 μM) [3] | EC50 ([1]; Homo sapiens, Ramos)
O=C(N=C(NCCc1c[nH]cn1)Nc1ccccc1-c1ccccc1)c1ccccc1Cl [Compound I-1, (Z/E)-N-((2-(1H-imidazol-4-yl)ethylamino)(biphenyl-2-ylamino)methylene)-2-chlorobenzamide] | > 30 µM | >30 µM | >20 µM | –
Cc1ccccc1C(=O)N=C(NCCc1c[nH]cn1)Nc1ccccc1-c1ccccc1 [Compound I-3, (E/Z)—N-((2-(1H-imidazol-4-yl)ethylamino)(biphenyl-2-ylamino)methylene)-2-methylbenzamide] | > 30 µM | >30 µM | >20 µM | –
Cc1cccc(C(=O)N=C(NCCc2c[nH]cn2)Nc2ccccc2-c2ccccc2)c1 [Compound I-4, (E/Z)—N-((2-(1H-imidazol-4-yl)ethylamino)(biphenyl-2-ylamino)methylene)-3-methylbenzamide] | > 20 µM | >20 µM | >10 µM | –
Cc1ccc(C(=O)N=C(NCCc2c[nH]cn2)Nc2ccccc2-c2ccccc2)cc1 [Compound I-5, (E/Z)—N-((2-(1H-imidazol-4-yl)ethylamino)(biphenyl-2-ylamino)methylene)-4-methylbenzamide] | > 20 µM | >10 µM | >10 µM | –
O=C(N=C(NCCc1c[nH]cn1)Nc1ccccc1-c1ccccc1)c1ccccc1 [Compound I-7, (Z/E)-N-((2-(1H-imidazol-4-yl)ethylamino)(biphenyl-2-ylamino)methylene)benzamide] | > 30 µM | >30 µM | >20 µM | –
O=C(N=C(NCCc1c[nH]cn1)Nc1ccccc1-c1ccccc1)c1cccc(Cl)c1 [Compound I-8, (Z/E)-N-((2-(1H-imidazol-4-yl)ethylamino)(biphenyl-2-ylamino)methylene)-3-chlorobenzamide] | > 20 µM | >10 µM | >10 µM | –
O=C(/N=C(/NCCc1c[nH]cn1)Nc1cccc2[nH]ccc12)c1cccc(Cl)c1 [Compound V-1, (Z/E)-N-((2-(1H-imidazol-4-yl)ethylamino)(1H-indol-4-ylamino)methylene)-3-chlorobenzamide] | – | >10 µM | >10 µM | > 30 µM
O=C(/N=C(/NCCc1c[nH]cn1)Nc1ccc2[nH]ccc2c1)c1cccc(Cl)c1 [Compound V-2, (Z/E)-N-((2-(1H-imidazol-4-yl)ethylamino)(1H-indol-5-ylamino)methylene)-3-chlorobenzamide] | – | >20 µM | >10 µM | > 20 µM
O=C(/N=C(/NCCc1c[nH]cn1)Nc1ccc2cc[nH]c2c1)c1cccc(Cl)c1 [Compound V-3, (Z/E)-N-((2-(1H-imidazol-4-yl)ethylamino)(1H-indol-6-ylamino)methylene)-3-chlorobenzamide] | – | <10 µM | >10 µM | > 20 µM
O=C(/N=C(/NCCc1c[nH]cn1)Nc1cccc2cc[nH]c12)c1cccc(Cl)c1 [Compound V-4, (Z/E)-N-((2-(1H-imidazol-4-yl)ethylamino)(1H-indol-7-ylamino)methylene)-3-chlorobenzamide] | – | >10 µM | >10 µM | > 30 µM
O=C(N=C(NCCc1c[nH]cn1)Nc1ccc(-c2ccccc2)cc1)c1ccc(Cl)cc1 [II-1, (Z/E)-N-((2-(1H-imidazol-4-yl)ethylamino)(biphenyl-4-ylamino)methylene)-4-chlorobenzamide] | > 30 µM | >10 µM | >10 µM | –
Cc1cccc(C(=O)N=C(NCCc2c[nH]cn2)Nc2ccc(-c3ccccc3)cc2)c1 [II-2, (Z/E)-N-((2-(1H-imidazol-4-yl)ethylamino)(biphenyl-4-ylamino)methylene)-3-methylbenzamide] | > 30 µM | >10 µM | >10 µM | –
Cc1ccc(C(=O)N=C(NCCc2c[nH]cn2)Nc2ccc(-c3ccccc3)cc2)cc1 [II-3, (Z/E)-N-((2-(1H-imidazol-4-yl)ethylamino)(biphenyl-4-ylamino)methylene)-4-methylbenzamide] | < 10 µM | >10 µM | >10 µM | –
O=C(N=C(NCCc1c[nH]cn1)Nc1ccc(-c2ccccc2)cc1)c1cccc(C(F)(F)F)c1 [II-4, (Z/E)-N-((2-(1H-imidazol-4-yl)ethylamino)(biphenyl-4-ylamino)methylene)-3-(trifluoromethyl)benzamide] | < 10 µM | >10 µM | >10 µM | –
O=C(N=C(NCCc1c[nH]cn1)Nc1ccc(-c2ccccc2)cc1)c1ccc(C(F)(F)F)cc1 [II-5, (Z/E)-N-((2-(1H-imidazol-4-yl)ethylamino)(biphenyl-4-ylamino)methylene)-4-(trifluoromethyl)benzamide] | < 10 µM | >10 µM | >10 µM | –
N#Cc1cccc(C(=O)N=C(NCCc2c[nH]cn2)Nc2ccc(-c3ccccc3)cc2)c1 [II-6, (Z/E)-N-((2-(1H-imidazol-4-yl)ethylamino)(biphenyl-4-ylamino)methylene)-3-cyanobenzamide] | > 30 µM | >30 µM | >20 µM | –
N#Cc1ccc(C(=O)N=C(NCCc2c[nH]cn2)Nc2ccc(-c3ccccc3)cc2)cc1 [II-7, (Z/E)-N-((2-(1H-imidazol-4-yl)ethylamino)(biphenyl-4-ylamino)methylene)-4-cyanobenzamide] | > 30 µM | >10 µM | >20 µM | –
O=C(N=C(NCCc1c[nH]cn1)Nc1ccc(-c2ccccc2)cc1)c1cccc(F)c1 [II-8, (Z/E)-N-((2-(1H-imidazol-4-yl)ethylamino)(biphenyl-4-ylamino)methylene)-3-fluorobenzamide] | < 10 µM | >10 µM | >10 µM | –
O=C(N=C(NCCc1c[nH]cn1)Nc1ccc(-c2ccccc2)cc1)c1ccc(F)cc1 [II-9, (Z/E)-N-((2-(1H-imidazol-4-yl)ethylamino)(biphenyl-4-ylamino)methylene)-4-fluorobenzamide] | > 30 µM | >30 µM | >20 µM | –
O=C(N=C(NCCc1c[nH]cn1)Nc1ccc(-c2ccccc2)cc1)c1cccc(Br)c1 [II-10, (Z/E)-N-((2-(1H-imidazol-4-yl)ethylamino)(biphenyl-4-ylamino)methylene)-3-bromobenzamide] | < 10 µM | >10 µM | >10 µM | –
O=C(N=C(NCCc1c[nH]cn1)Nc1ccc(-c2ccccc2)cc1)c1ccc(Br)cc1 [II-11, (Z/E)-N-((2-(1H-imidazol-4-yl)ethylamino)(biphenyl-4-ylamino)methylene)-4-bromobenzamide] | > 30 µM | >20 µM | >10 µM | –
O=C(N=C(NCCc1c[nH]cn1)Nc1ccc(-c2ccccc2)cc1)c1cccc([N+](=O)[O-])c1 [II-12, (Z/E)-N-((2-(1H-imidazol-4-yl)ethylamino)(biphenyl-4-ylamino)methylene)-3-nitrobenzamide] | > 30 µM | >10 µM | >10 µM | –
O=C(N=C(NCCc1c[nH]cn1)Nc1ccc(-c2ccccc2)cc1)c1ccc([N+](=O)[O-])cc1 [II-13, (Z/E)-N-((2-(1H-imidazol-4-yl)ethylamino)(biphenyl-4-ylamino)methylene)-4-nitrobenzamide] | > 30 µM | >30 µM | >20 µM | –
O=C(N=C(NCCc1c[nH]cn1)Nc1ccc(-c2ccccc2)cc1)c1ccc(Cl)c(Cl)c1 [II-16, (Z/E)-N-((2-(1H-imidazol-4-yl)ethylamino)(biphenyl-4-ylamino)methylene)-3,4-dichlorobenzamide] | < 10 µM | <10 µM | <10 µM | –
O=C(N=C(NCCc1c[nH]cn1)Nc1ccccc1Br)c1cccc(Cl)c1 [III-2, (Z/E)-N-((2-(1H-imidazol-4-yl)ethylamino)(2-bromophenylamino)methylene)-3-chlorobenzamide] | > 20 µM | >20 µM | <10 µM | –
O=C(N=C(NCCc1c[nH]cn1)Nc1cccc(Br)c1)c1cccc(Cl)c1 [III-3, (Z/E)-N-((2-(1H-imidazol-4-yl)ethylamino)(3-bromophenylamino)methylene)-3-chlorobenzamide] | > 10 µM | >10 µM | <10 µM | –
O=C(N=C(NCCc1c[nH]cn1)Nc1cccc(-c2ccccc2)c1)c1cccc(Cl)c1 [III-6, (Z/E)-N-((2-(1H-imidazol-4-yl)ethylamino)(biphenyl-3-ylamino)methylene)-3-chlorobenzamide] | < 10 µM | >10 µM | <10 µM | –
O=C(N=C(NCCc1c[nH]cn1)Nc1ccc(-c2ccccc2)cc1)c1cccc(Cl)c1 [III-7, (Z/E)-N-((2-(1H-imidazol-4-yl)ethylamino)(biphenyl-4-ylamino)methylene)-3-chlorobenzamide] | < 10 µM | >10 µM | <10 µM | –
Cc1ccccc1NC(=NC(=O)c1cccc(Cl)c1)NCCc1c[nH]cn1 [III-8, (Z/E)-N-((2-(1H-imidazol-4-yl)ethylamino)(o-toluidino)methylene)-3-chlorobenzamide] | > 30 µM | >30 µM | >10 µM | –

— US8324258B2, “F1F0-ATPase inhibitors and related methods” (The Regents of the University of Michigan, priority 2007, dated 2012)
